Test results reported in patent US20030060508A1, “Polyunsaturated fatty acid fractions of Nigella sativa L. seeds” (priority 2000, published 2003).

Legend:
[1] = tested on: Corynebacterium pyogenes; assay: Comparative antibacterial activity with ampicillin, bore method; type: cell-based; conditions: 1 μg/mL, read-out: Diameter of Zone of Inhibition
Method: (§1) […] The values are the average of three separate experiments. The anti-bacterial activity of the tested isolates was detected in vitro using the bore method. The nutrient agar medium containing one bacterial strain was poured into sterilized petri-dishes, each 20×120 mm, then left for 10 minutes to dry. Using the borer No. 5, a central bore was made in each plate, then another 4 were arranged it. The effect of different concentrations of the tested isolates on certain microorganisms was tested in 2 plates.
(§2) The comparative antibacterial activity of ampicillin and the Nigella sativa L. polyunsaturated fatty acid fraction against certain bacterial strains (Streptococcus pyogenes, Corynebacterium pyogenes and Salmonella typhi murium) was preformed in vitro using the bore method as described by Cooper and Woodman (1964) as previously described. The effect of ampicillin (1 μg/mL) and the Nigella sativa L. polyunsaturated fatty acid fraction (at 1 mg/ml) on the previously mentioned bacteria was tested.

[2] = tested on: Salmonella typhi murium; assay: as above; type: cell-based; conditions: Salmonella enterica, read-out: Diameter of Zone of Inhibition
Method: as §1, §2

[3] = tested on: Streptococcus pyogenes; assay: as above; type: cell-based; conditions: 1 μg/mL, read-out: Diameter of Zone of Inhibition
Method: as §1, §2

[4] = tested on: writhing induced by parabenzoquinone; assay: analgesic activity, writhing method; type: in vivo, mice; conditions: 5.0 mg/100 g.b.w.
Method: The analgesic activity of the Nigella sativa L. polyunsaturated fatty acid fraction was studied using the writhing method described by Okun et al. (1963). Thirty mature mice of both sexes weighing from 20 to 25 gm were divided into 3 groups of 10 mice each. The first group served as a control and the second group served as a standard (treated with paracetamol in a dose of 5 mg/100 gm body weight). The third group was injected subcutaneously with the Nigella sativa L. polyunsaturated fatty acid fraction. After 30 minutes, mice were injected intraperitoneally with 0.25 ml of a solution of parabenziquinone (0.2 mg/ml in saline). […] Animals devoid of writhing in each group were recorded and the analgesic potencies of paracetamol and the Nigella sativa L. polyunsaturated fatty acid fraction were determined as percent protection against writhing.

[5] = tested on: rat paw formalin edema; assay: anti-inflammatory activity, rat paw formalin edema; type: in vivo, rats; conditions: 3 mg/100 g.b.w. intraperitoneally
Method: The anti-inflammatory activity of the Nigella sativa L. polyunsaturated fatty acid fraction was carried out in rats using a modification of rat paw formalin edema as described by Domemjoz et al. (1965).
Fifteen mature albino rats of both sexes weighing 150-200 gm were divided into 3 groups of 5 rats each. At the beginning of the experiment, the thickness of the rat left hind paw was measured using a Vernier caliper. Thereafter, rats of the first group were kept as a control and those of the second group (standard) were injected intraperitoneally with phenylbutazone in a dose of 3 mg/100 gm body weight. Rats of the third group were injected with the Nigella sativa L. polyunsaturated fatty acid fraction. After 30 minutes, inflammation was induced by subcutaneous injection of 0.1 mL of 6% solution of formalin in normal saline into the left hind paw.
The anti-inflammatory effect of the Nigella sativa L. polyunsaturated fatty acid fraction was estimated by comparing the magnitude of the paw swelling in the pretreated animals with that of the control animals. Measurement of rat paw thickness was carried out at hourly intervals for a period of 3 hours.

[6] = tested on: histamine-induced bronchospasm in guinea pigs; assay: protection from histamine-induced bronchospasm; type: in vivo; conditions: 239 mg/kg i.p.
Method: The anti-histamine effects of the Nigella sativa L. polyunsaturated fatty acid fraction on induced bronchospasm in guinea pigs was evaluated using the methods described by Armitage et al, Brit. J Pharmacol., 16:59-76 (1961). Willis, J. Pharm. Pharmacol., 21:126 (1969).
The prophylactic anti-allergic effects were evaluated in guinea pigs (300-400 grams). The animals were divided into 5 groups (10 animals each) and treated i.p. as follows: (1) animals treated with saline (control); (2) animals treated with diphenydramine (239 mg/kg/day); (3) animals treated with 50 mg/kg polyunsaturated fatty acid fraction; (4) animals treated with 100 mg/kg polyunsaturated fatty acid fraction; and (5) animals treated with 150 mg/kg polyunsaturated fatty acid fraction.
Animals were exposed 30 minutes after their i.p. injection of diphenydramine and polyunsaturated fatty acid fraction to histamine aerosol (1%) for 3 minutes. Bronchospasm and loss of rightening after 30, 60 and 90 minutes was calculated according to the following formula (Dawson and Sweatman, Br. J. Pharmacol., 71:387-398 (1980)): [formula]

[7] = tested on: guinea pigs exposed to histamine aerosol (0.25%); assay: prophylactic anti-asthmatic effect, preconvulsive time; type: in vivo; conditions: 5 microg/kg, treated for 21 days
Method: This example explains in vivo studies to evaluate the prophylactic (protective) anti-asthmatic effect of the Nigella sativa L. polyunsaturated fatty acid fraction. The prophylactic antiasthmatic effect was evaluated in vivo by measurement of the preconvulsive time in guinea pigs exposed to histamine aerosol (0.25%).
Guinea pigs were divided into three groups with 8 animals per group. The first group received a saline injection to serve as negative control. The second group received ketotifen, which is the standard treatment to serve as positive control. The third group received 200 mg/kg of the Nigella sativa L. polyunsaturated fatty acid fraction.
Animals in all groups were treated for 21 days, after which they were exposed to histamine (0.25%) aerosol and the preconvulsive time was recorded.

[8] = tested on: ova albumin inhalation in sensitized guinea pigs; assay: time to onset of tachypnea in sensitized animals; type: in vivo; conditions: 50 microg/kg, treated for 21 days
Method: The second protocol involved sensitized animals. Animals were sensitized by injecting ova albumin in two doses 100 mg. each (S.C. and I.P., simultaneously). Animals were resensitized 15 days later. Guinea pigs were divided into three groups with 8 animals per group. The first group received a saline injection to serve as negative control. The second group received ketotifen which is the standard treatment to serve as positive control. The third group received 200 mg/kg each of Nigella sativa L. polyunsaturated fatty acid fraction. Animals in all groups were treated for 21 days following which they were exposed to ova albumin inhalation and time to onset of tachypnea was recorded as shown in the table below (*Statistically significant from the control group (P<0.05)).

Compound: CC1(C)S[C@@H]2[C@H](NC(=O)[C@H](N)c3ccccc3)C(=O)N2[C@H]1C(=O)O [Ampicillin, ampicillin]
- zone of inhibition at 1 µg/mL [1]: 44.7 ± 0.8 mm
- zone of inhibition at 1 µg/mL [2]: 13.1 ± 0.2 mm
- zone of inhibition at 1 µg/mL [3]: 26.7 ± 0.3 mm

Compound: CC(=O)Nc1ccc(O)cc1 [Paracetamol, paracetamol]
- % Protection, 120 minutes [4]: 20%
- % protection 30 minutes [4]: 100%
- % protection 60 minutes [4]: 60%
- % protection 90 minutes [4]: 40%

Compound: CCCCC1C(=O)N(c2ccccc2)N(c2ccccc2)C1=O [Phenylbutazone, phenylbutazone]
- Rat Paw Thickness, 1 Hour [5]: 5.85 ± 0.15 mm
- Rat Paw Thickness, 2 Hours [5]: 5.71 ± 0.09 mm
- Rat Paw Thickness, 3 Hours [5]: 5.82 ± 0.05 mm

Compound: CN(C)CCOC(c1ccccc1)c1ccccc1 [diphenhydramine]
- % protection 30 minutes [6]: 100%
- % protection 60 minutes [6]: 100%
- % protection 90 minutes [6]: 90%

Compound: CN1CCC(=C2c3ccccc3CC(=O)c3sccc32)CC1 [ketotifen]
- % of Prophylaxis (Protection) [7]: 82.85%
- % of Prophylaxis [8]: 44.4%
